In US12421253B2 (Mirati Therapeutics, Inc., priority 2020, dated 2025):
pIC50: −log10 of the molar value.

Tests used:
KRas^G12V = target: T1, KRas^G12V (Homo sapiens, UniProt P01116, G12V); experiment: KRas binding assay (TR-FRET displacement of Cy5 labelled tracer)
T1 construct: […]; biotin (biotinylated); purchased Accelegan Inc
Protocol: (§1) The ability of a compound to bind to KRas was measured using a TR-FRET displacement assay. […] After a 60-minute incubation at room temperature, the reaction was measured using a BMG LABTECH CLARIO star Plus via TR-FRET. […] The POC values were fit to a 4-parameter IC50 equation and the IC50 value reported.

KRas^G12R = target: T2, KRas^G12R (Homo sapiens, UniProt P01116, G12R); experiment: as above
T2 construct: […]; biotin (biotinylated); purchased Accelegan Inc
Protocol: as §1

KRas^G12D = target: T3, KRas^G12D (Homo sapiens, UniProt P01116, G12D); experiment: as above
T3 construct: […]; biotin (biotinylated); purchased Accelegan Inc
T3 sequence (P01116 1-169 isoform P01116-2 G12D): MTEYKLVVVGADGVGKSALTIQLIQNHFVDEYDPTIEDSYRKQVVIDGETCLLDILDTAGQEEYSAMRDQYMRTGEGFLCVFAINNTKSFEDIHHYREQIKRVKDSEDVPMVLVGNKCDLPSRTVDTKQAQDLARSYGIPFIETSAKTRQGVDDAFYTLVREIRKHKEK
Protocol: as §1

KRas^Q61H = KRas^Q61H (Homo sapiens, UniProt P01116, Q61H); experiment: biochemical
Sequence of KRas^Q61H (P01116 1-169 isoform P01116-2 Q61H): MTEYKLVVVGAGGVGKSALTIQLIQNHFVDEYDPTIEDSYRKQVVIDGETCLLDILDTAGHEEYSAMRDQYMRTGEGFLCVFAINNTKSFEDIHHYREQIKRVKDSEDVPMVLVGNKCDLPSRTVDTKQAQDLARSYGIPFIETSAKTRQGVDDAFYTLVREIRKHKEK
Protocol: as §1

KRas^G12A = target: T4, KRas^G12A (Homo sapiens, UniProt P01116, G12A); experiment: KRas binding assay (TR-FRET displacement of Cy5 labelled tracer)
T4 construct: […]; biotin (biotinylated); purchased Accelegan Inc
T4 sequence (P01116 1-169 isoform P01116-2 G12A): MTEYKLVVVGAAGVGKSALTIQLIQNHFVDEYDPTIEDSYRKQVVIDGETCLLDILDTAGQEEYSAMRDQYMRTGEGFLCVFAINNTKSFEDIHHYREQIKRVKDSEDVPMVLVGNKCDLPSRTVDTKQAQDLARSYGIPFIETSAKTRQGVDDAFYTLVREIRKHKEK
Protocol: as §1

KRas^G12S = target: T5, KRas^G12S (Homo sapiens, UniProt P01116, G12S); experiment: as above
T5 construct: […]; biotin (biotinylated); purchased Accelegan Inc
T5 sequence (P01116 1-169 isoform P01116-2 G12S): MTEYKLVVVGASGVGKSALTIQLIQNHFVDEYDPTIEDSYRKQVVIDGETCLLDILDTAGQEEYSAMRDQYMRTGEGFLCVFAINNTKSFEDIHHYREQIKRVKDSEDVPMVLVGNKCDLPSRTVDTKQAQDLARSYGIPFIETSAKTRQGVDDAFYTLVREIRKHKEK
Protocol: as §1

KRas^WT = target: T6, KRas^WT (Homo sapiens, UniProt P01116); experiment: as above
T6 construct: […]; biotin (biotinylated); purchased Accelegan Inc
T6 sequence (P01116 1-169 isoform P01116-2): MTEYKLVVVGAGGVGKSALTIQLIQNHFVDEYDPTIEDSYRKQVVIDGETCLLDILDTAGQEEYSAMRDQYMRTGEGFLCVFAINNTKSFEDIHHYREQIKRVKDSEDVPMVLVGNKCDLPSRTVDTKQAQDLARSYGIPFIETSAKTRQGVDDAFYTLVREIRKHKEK
Protocol: as §1

KRas^G12C = KRas^G12C (Homo sapiens, UniProt P01116, G12C); experiment: biochemical
Sequence of KRas^G12C (P01116 1-169 isoform P01116-2 G12C): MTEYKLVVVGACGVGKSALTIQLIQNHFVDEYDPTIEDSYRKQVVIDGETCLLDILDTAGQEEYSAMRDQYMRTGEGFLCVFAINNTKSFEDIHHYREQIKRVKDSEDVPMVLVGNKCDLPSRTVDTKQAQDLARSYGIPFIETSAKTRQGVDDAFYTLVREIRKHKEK
Protocol: as §1

KRas^G13D = KRas^G13D (Homo sapiens, UniProt P01116, G13D); experiment: biochemical
Sequence of KRas^G13D (P01116 1-169 isoform P01116-2 G13D): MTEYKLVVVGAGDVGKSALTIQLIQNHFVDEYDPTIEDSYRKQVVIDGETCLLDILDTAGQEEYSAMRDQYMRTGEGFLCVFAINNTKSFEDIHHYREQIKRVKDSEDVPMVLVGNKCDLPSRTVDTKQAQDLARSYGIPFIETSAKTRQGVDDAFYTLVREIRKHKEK
Protocol: as §1

T2 sequence (P01116 1-169 isoform P01116-2 G12R): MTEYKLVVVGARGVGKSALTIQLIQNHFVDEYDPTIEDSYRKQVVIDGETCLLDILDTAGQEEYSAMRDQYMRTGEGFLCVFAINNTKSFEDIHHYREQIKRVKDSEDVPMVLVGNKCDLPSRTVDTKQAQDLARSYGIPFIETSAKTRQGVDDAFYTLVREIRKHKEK
T1 sequence (P01116 1-169 isoform P01116-2 G12V): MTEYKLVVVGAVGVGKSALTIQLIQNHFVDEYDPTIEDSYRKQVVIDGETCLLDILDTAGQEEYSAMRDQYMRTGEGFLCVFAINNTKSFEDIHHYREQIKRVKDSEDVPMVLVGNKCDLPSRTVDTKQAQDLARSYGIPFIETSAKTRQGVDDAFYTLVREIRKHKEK

SMILES	pIC50 (KRas^G12V)	pIC50 (KRas^G12R)	pIC50 (KRas^G12D)	pIC50 (KRas^Q61H)	pIC50 (KRas^G12A)	pIC50 (KRas^G12S)	pIC50 (KRas^WT)	pIC50 (KRas^G12C)	pIC50 (KRas^G13D)
CCc1c(F)ccc2cccc(N3CCc4c(nc(OCC56CCCN5CCC6)nc4N4CCC[C@@](C)(O)C4)C3)c12 [Example 3, (R)-1-(7-(8-ethyl-7-fluoronaphthalen-1-yl)-2-((hexahydro-1H-pyrrolizin-7a-yl)methoxy)-5,6,7,8-tetrahydropyrido[3,4-d]pyrimidin-4-yl)-3-methylpiperidin-3-ol]	7.77	7.60	7.80						
CCc1cccc2cccc(N3CCc4c(nc(OCC56CCCN5CCC6)nc4N4CCCCCC(S(C)(=O)=O)C4)C3)c12 (stereo not shown) [Example 14, 7-(8-ethylnaphthalen-1-yl)-4-(3-(methylsulfonyl)azocan-1-yl)-2-((tetrahydro-1H-pyrrolizin-7a(5H)-yl)methoxy)-5,6,7,8-tetrahydropyrido[3,4-d]pyrimidine]	6.95	6.63	6.59	6.87	6.84	6.77	6.92	6.76	6.93
CCc1cccc2cccc(N3CCc4c(nc(OCC56CCCN5CCC6)nc4N4CCCC(CO)CC4)C3)c12 (stereo not shown) [Example 107, (1-(7-(8-ethylnaphthalen-1-yl)-2-((tetrahydro-1H-pyrrolizin-7a(5H)-yl)methoxy)-5,6,7,8-tetrahydropyrido[3,4-d]pyrimidin-4-yl)azepan-4-yl)methanol]	6.39	6.20	5.84	6.28	6.37	6.27	6.43	6.31	6.33
CCc1cccc2cccc(N3CCc4c(nc(OCC56CCCN5CCC6)nc4N4CCn5ncc(S(C)(=O)=O)c5C4)C3)c12 [Example 144, 7-(8-ethylnaphthalen-1-yl)-4-(3-(methylsulfonyl)-6,7-dihydropyrazolo[1,5-a]pyrazin-5(4H)-yl)-2-((tetrahydro-1H-pyrrolizin-7a(5H)-yl)methoxy)-5,6,7,8-tetrahydropyrido[3,4-d]pyrimidine]	5.20	4.95	5.90	4.97	5.07	5.25	5.12	5.30	4.99
Cc1cccc2cccc(N3CCc4c(nc(OCC56CCCN5CCC6)nc4N4CC5C(=O)NC(=O)C5C4)C3)c12 (stereo not shown) [Example 80, 5-(2-((hexahydro-1H-pyrrolizin-7a-yl)methoxy)-7-(8-methylnaphthalen-1-yl)-5,6,7,8-tetrahydropyrido[3,4-d]pyrimidin-4-yl)tetrahydropyrrolo[3,4-c]pyrrole-1,3(2H,3aH)-dione]	6.89	6.55	6.92	6.59	6.37	7.17	6.70	6.68	6.67
CCc1cccc2cccc(N3CCc4c(nc(OCC56CCCN5CCC6)nc4NC4CC(=O)N(c5cnn(C)c5)C4)C3)c12 (stereo not shown) [Example 126, 4-((7-(8-ethylnaphthalen-1-yl)-2-((tetrahydro-1H-pyrrolizin-7a(5H)-yl)methoxy)-5,6,7,8-tetrahydropyrido[3,4-d]pyrimidin-4-yl)amino)-1-(1-methyl-1H-pyrazol-4-yl)pyrrolidin-2-one]	5.56	5.48	6.14	5.26	5.23	5.54	5.37	5.56	5.25
Oc1cc(N2CCc3c(nc(OC[C@@]45CCCN4C[C@H](F)C5)nc3N3CC4CC(O)CC3C4)C2)c2c(Br)c(F)ccc2c1 (single isomer, unassigned) [Example 214]	6.93	7.27	6.25						
CCc1cccc2cccc(N3CCc4c(nc(OCC56CCCN5CCC6)nc4N4CCC(O)CC(CO)C4)C3)c12 (single isomer, unassigned) [Example 173, 1-(7-(8-ethylnaphthalen-1-yl)-2-((hexahydro-1H-pyrrolizin-7a-yl)methoxy)-5,6,7,8-tetrahydropyrido[3,4-d]pyrimidin-4-yl)-6-(hydroxymethyl)azepan-4-ol]	6.27	6.51	5.94						
CCc1cccc2cccc(N3CCc4c(nc(OCC56CCCN5CCC6)nc4Nc4cccnc4)C3)c12 [Example 5, 7-(8-ethylnaphthalen-1-yl)-2-((hexahydro-1H-pyrrolizin-7a-yl)methoxy)-N-(pyridin-3-yl)-5,6,7,8-tetrahydropyrido[3,4-d]pyrimidin-4-amine]	5.12	5.09	4.72						
CCc1cccc2cccc(N3CCc4c(nc(OCC56CCCN5CCC6)nc4N4CCCC(C)(O)C4)C3)c12 (stereo not shown) [Example 4, 1-(7-(8-ethylnaphthalen-1-yl)-2-((hexahydro-1H-pyrrolizin-7a-yl)methoxy)-5,6,7,8-tetrahydropyrido[3,4-d]pyrimidin-4-yl)-3-methylpiperidin-3-ol]	7.05	6.90	7.01						
Oc1cc(N2CCc3c(nc(OC[C@@]45CCCN4C[C@H](F)C5)nc3N3CC4CC(O)CC3C4)C2)c2c(Cl)c(F)ccc2c1 (single isomer, unassigned) [Example 77]	6.73	6.78	6.13						
CCc1cccc2cccc(N3CCc4c(nc(OCC56CCCN5CCC6)nc4NCC4(C)CSC4)C3)c12 [Example 171, 7-(8-ethylnaphthalen-1-yl)-N-((3-methylthietan-3-yl)methyl)-2-((tetrahydro-1H-pyrrolizin-7a(5H)-yl)methoxy)-5,6,7,8-tetrahydropyrido[3,4-d]pyrimidin-4-amine]	5.06	5.08	4.78						
CCc1cccc2cccc(N3CCc4c(nc(OCC56CCCN5CCC6)nc4N4CCC(O)CC(CO)C4)C3)c12 (single isomer, unassigned) [Example 174, 1-(7-(8-ethylnaphthalen-1-yl)-2-((hexahydro-1H-pyrrolizin-7a-yl)methoxy)-5,6,7,8-tetrahydropyrido[3,4-d]pyrimidin-4-yl)-6-(hydroxymethyl)azepan-4-ol]	7.42	7.62	6.54						
CCc1cccc2cccc(N3CCc4c(nc(OCC56CCCN5CCC6)nc4N4CCC(O)CC(CO)C4)C3)c12 (single isomer, unassigned) [Example 172, 1-(7-(8-ethylnaphthalen-1-yl)-2-((hexahydro-1H-pyrrolizin-7a-yl)methoxy)-5,6,7,8-tetrahydropyrido[3,4-d]pyrimidin-4-yl)-6-(hydroxymethyl)azepan-4-ol]	6.82	6.82	6.65						
CCc1cccc2cccc(N3CCc4c(nc(OCC56CCCN5CCC6)nc4N4CCCC(c5noc(C(F)(F)F)n5)C4)C3)c12 (stereo not shown) [Example 163, 3-(1-(7-(8-ethylnaphthalen-1-yl)-2-((tetrahydro-1H-pyrrolizin-7a(5H)-yl)methoxy)-5,6,7,8-tetrahydropyrido[3,4-d]pyrimidin-4-yl)piperidin-3-yl)-5-(trifluoromethyl)-1,2,4-oxadiazole]	5.29	5.46	5.15						
CCc1cccc2cccc(N3CCc4c(nc(OCC56CCCN5CCC6)nc4N4CCCCC(CO)C4)C3)c12 (stereo not shown) [Example 38, (1-(7-(8-ethylnaphthalen-1-yl)-2-((hexahydro-1H-pyrrolizin-7a-yl)methoxy)-5,6,7,8-tetrahydropyrido[3,4-d]pyrimidin-4-yl)azepan-3-yl)methanol]	6.69	6.31	≥ 8.70				6.35		
CCc1cccc2cccc(N3CCc4c(nc(OCC56CCCN5CCC6)nc4N4CCOCC(CO)C4)C3)c12 (stereo not shown) [Example 37, (4-(7-(8-ethylnaphthalen-1-yl)-2-((hexahydro-1H-pyrrolizin-7a-yl)methoxy)-5,6,7,8-tetrahydropyrido[3,4-d]pyrimidin-4-yl)-1,4-oxazepan-6-yl)methanol]	6.66	6.77	6.32				6.67		
CCc1cccc2cccc(N3CCc4c(nc(OCC56CCCN5CCC6)nc4NCCc4ccno4)C3)c12 [Example 169, 7-(8-ethylnaphthalen-1-yl)-N-(2-(isoxazol-5-yl)ethyl)-2-((tetrahydro-1H-pyrrolizin-7a(5H)-yl)methoxy)-5,6,7,8-tetrahydropyrido[3,4-d]pyrimidin-4-amine]	5.14	5.29	5.07						
CCc1cccc2cccc(N3CCc4c(nc(OCC56CCCN5CCC6)nc4N4CCCC(O)C4)C3)c12 (stereo not shown) [Example 43, 1-(7-(8-ethylnaphthalen-1-yl)-2-((hexahydro-1H-pyrrolizin-7a-yl)methoxy)-5,6,7,8-tetrahydropyrido[3,4-d]pyrimidin-4-yl)piperidin-3-ol]	6.57	6.70	6.26					6.57	
CCc1cccc2cccc(N3CCc4c(nc(OCC56CCCN5CCC6)nc4N4CCN(c5ccncn5)CC4)C3)c12 [Example 58, 7-(8-ethylnaphthalen-1-yl)-2-((hexahydro-1H-pyrrolizin-7a-yl)methoxy)-4-(4-(pyrimidin-4-yl)piperazin-1-yl)-5,6,7,8-tetrahydropyrido[3,4-d]pyrimidine]	5.54	5.10	4.70					5.18	
